Test results taken from patent US20110274808A1, “METHODS FOR INCREASING THE PALATABILITY OF COMPANION ANIMAL FOOD COMPOSITIONS” (Hill's Pet Nutrition, Inc., priority 2008, published 2011).

How the values were obtained:
[1] = Six-month feeding safety study in dogs (body weight, physical examination, serum biochemistry, hematology); type: in vivo
Text: (§1) Thirty (30) adult, random source, dogs were utilized for this study. Dogs were at least 10 months of age, not pregnant, not lactating and of reasonable body weight prior to start of test. Animals were randomized into 5 groups for dietary treatment with 3 males and 3 females per each group.
All dogs were fed a control food (0 ppm dl-alpha-lipoic acid added) that met or exceeded all recommendations for nutrients as proposed by the American Association of Feed Control Officials (AAFCO 2000) during a 2 week prefeeding period (Table 2). […]
Test foods were the sole source of nutrients except for water. […] After dogs were selected and initial body weights taken, a food dose was calculated for each dog based on the expected ME of the food. Initial food dose calculations were based on the maintenance energy requirement (MER) for the dog modified by a factor to account for normal activity as calculated by the following formula: […]
Dogs were weighed weekly and had food doses adjusted as needed in order to feed enough food to maintain their optimal body weight. Optimal body weight was determined to be 3 on a 5 point scale. […] All measures of body weight and food intake were recorded. […]
Comparison of values for clinical chemistry, hematology and body weights vs baseline were analyzed by way of paired t-test on SAS for windows with significance set at P<0.05. […]

[2] = tested on: GSH:GSSG ratio; experiment: Change in GSH:GSSG ratio in blood lymphocytes of dogs fed dl-alpha-lipoic acid in extruded food; type: in vivo, dog
Text: as §1
All dogs were fed a control food (0 ppm dl-alpha-lipoic acid added) that met or exceeded all recommendations for nutrients as proposed by the American Association of Feed Control Officials (AAFCO 2000) during a 2 week prefeeding period (Table 2). Following the prefeeding period dogs were randomized into 5 treatment groups with one of the following dl-alpha lipoic acid target-inclusions (dry matter basis): 0 ppm, 150 ppm, 1500 ppm, 3000 ppm, 4500 ppm. In all diets, control and alpha lipoic acid, Vitamin E was added and was present at a level of 600-1000 International Units and Vitamin C was added at levels of 100-200 ppm.
Blood was collected aseptically for complete blood count, and blood biochemistry analysis 2 weeks prior to start and again at 0, 28, 56, 84, 112, 140 and 168 days of the study. In addition, 15 ml of whole blood was collected for isolation of lymphocytes at day 0, 28 and 84 of the dietary intervention.
Heparinzed whole blood was layered onto a 50 ml Accuspin conical centrifuge tube (Sigma Chemical) and an equal volume of Phosphate buffered saline (PBS) was added. Samples were centrifuged at 700 g for 30 minutes without brake. The monocyte layer was harvested, transferred to a 15 ml conical centrifuge tube, resuspended in 1-3 ml of PB, and centrifuged as before (First wash). A second wash was performed as the first wash. Finally, cells were harvested and suspended in perchloric acid (10% w/v) and frozen at −70° C. until analysis.
Samples were transferred from −70° C. freezer into a cooler with dry ice in it. Vials were centrifuged at 12,000 rpm for 5 minutes in a refrigerated centrifuge. An aliquot of supernatant for glutathione (GSH) analysis was transferred to a conical test tube.
Derivatization of the acid soluble extracts was by the method of Reed and coworkers (Fariss et al) as modified by Jones (Jones et al)
Briefly, 150 μL extract or external standards were added into a 1.5 ml Eppendorf tube followed by addition of 20 μγ-Glu-Glu internal standard and 50 μL IAA added followed by mixing. The solution was adjusted to pH about 10 (purple color) by using KOH—KHCO3 working solution. Solutions were incubated 1 hr. under room temperature in the dark. Sanger's reagent was added at the same volume as of the total volume and the solution was incubated overnight (20 hrs) in the dark at room temperature.
After incubation, the solution was centrifuged at 12000 rpm for 5 minutes with the supernatant transferred into another 1.5 ml eppendorf tube.
Solvents and separation conditions were as described (Fariss, Jones). Levels of GSH and GSSG were quantified relative to authentic standards. Gamma-glutamyl-glutamate was used as an internal standard to assess derivatization efficiency.
Comparison of values for clinical chemistry, hematology and body weights vs baseline were analyzed by way of paired t-test on SAS for windows with significance set at P<0.05. Means of values at each measured time point were separated by a one-way ANOVA with significance set at P<0.05. The difference in GSH:GSSG between day 84 and baseline were analyzed between groups by way of SAS for windows in a one-way ANOVA with significance set at P<0.05.

[3] = Change in body composition of dogs over 90 days; type: in vivo, dog; settings: 90 day treatment period
Text: Table 4 illustrates the change in body composition of dogs fed a control diet compared with dogs fed a control plus fish oil and a control plus lipoic acid.

For `O=C(O)CCCCC1CCSS1` (racemic) [DL-Alpha Lipoic Acid, dl-alpha-lipoic acid], the “Safety of chronic feeding in diet” value ([1]; dog, in vivo) was “safe and effective”, the Body weight ([1]; dogs, 4500 ppm inclusion group, 6 months) was “some weight loss occurred initially” and the “Difference in GSH:GSSG ratio - day 0 to day 84” value (shortened to “Difference in GSH:GSSG ratio”) ([2]; dogs, 150 ppm inclusion in extruded food) was 70 +/− 20. The “Difference in GSH:GSSG ratio” value ([2]; dogs, 1,500 ppm inclusion in extruded food) was 24 +/− 7, the “Difference in GSH:GSSG ratio” value ([2]; dogs, 3,000 ppm inclusion in extruded food) was 10 +/− 4 and the “Difference in GSH:GSSG ratio” value ([2]; dogs, 4,500 ppm inclusion in extruded food) was 50 +/− 36. The “Effect on reduced glutathione (GSH) to oxidized glutathione (GSSG) ratio” value ([2]; dogs, chronic feeding in diet) was “improves” and the “Change in weight compared with control and fish oil diets” value [3] was “greatest change in weight”.
